According to patent US9943529B2, “Methods for reducing cellular proliferation and treating certain diseases” (BRIGHAM YOUNG UNIVERSITY, priority 2013, dated 2018):

Assays:
PC-3 [1] = assay: cells; conditions: Homo sapiens, PC-3, 48 h
NCI-H322M = assay: cells; conditions: Homo sapiens, 48 h
DU-145 = conditions: 48 hours, five 10-fold dilutions starting from 100 μM
MOLT-4 = assay: NCI screen antiproliferative activity, sulforhodamine B, Leukemia panel; assay type: cell-based, human; conditions: 48 hours, five 10-fold dilutions starting from 100 μM
IGROV1 [2] = assay: cells; conditions: Homo sapiens, IGROV-1, 48 h
ACHN [3] = assay: cells; conditions: Homo sapiens, 48 h
MDA-MB-231/ATCC = assay: cells; conditions: Homo sapiens, MDA-MB-231, 48 h
SK-MEL-5 = assay: NCI screen antiproliferative activity, sulforhodamine B, Melanoma panel; assay type: cell-based, human; conditions: 48 hours, five 10-fold dilutions starting from 100 μM
HOP-92 [4] = assay: cells; conditions: Homo sapiens, HOP-92, 48 h
NCI-ADR-RES = assay: cells; conditions: Homo sapiens, 48 h
NCI-H226 = conditions: 48 hours, five 10-fold dilutions starting from 100 μM
HCT-116 = conditions: 48 hours, five 10-fold dilutions starting from 100 μM
786-0 = assay: cells; conditions: Homo sapiens, 786-0, 48 h
SN12C [5] = assay: cells; conditions: Homo sapiens, 48 h
UACC-257 = conditions: 48 hours, five 10-fold dilutions starting from 100 μM
SNB-75 [6] = conditions: 48 hours, five 10-fold dilutions starting from 100 μM
SN12C [7] = conditions: 48 hours, five 10-fold dilutions starting from 100 μM
T-47D = conditions: 48 hours, five 10-fold dilutions starting from 100 μM
SNB-75 [8] = assay: cells; conditions: Homo sapiens, SNB-75, 48 h
SW-620 = assay: NCI screen antiproliferative activity, sulforhodamine B, Colon Cancer panel; assay type: cell-based, human; conditions: 48 hours, five 10-fold dilutions starting from 100 μM
HOP-92 [9] = conditions: 48 hours, five 10-fold dilutions starting from 100 μM
OVCAR-5 [10] = conditions: 48 hours, five 10-fold dilutions starting from 100 μM
SK-OV-3 = conditions: 48 hours, five 10-fold dilutions starting from 100 μM
CAKI-1 = conditions: 48 hours, five 10-fold dilutions starting from 100 μM
SF-268 = assay: cells; conditions: Homo sapiens, SF-268, 48 h
ACHN [11] = conditions: 48 hours, five 10-fold dilutions starting from 100 μM
MCF7 [12] = assay: cells; conditions: Homo sapiens, MCF7, 48 h
MCF7 [13] = conditions: 48 hours, five 10-fold dilutions starting from 100 μM
SR = assay: NCI screen antiproliferative activity, sulforhodamine B, Leukemia panel; assay type: cell-based, human; conditions: 48 hours, five 10-fold dilutions starting from 100 μM
SF-295 [14] = assay: cells; conditions: Homo sapiens, SF-295, 48 h
PC-3 [15] = conditions: 48 hours, five 10-fold dilutions starting from 100 μM
K-562 = assay: NCI screen antiproliferative activity, sulforhodamine B, Leukemia panel; assay type: cell-based, human; conditions: five 10-fold dilutions starting from 100 μM
SK-MEL-2 = conditions: 48 hours, five 10-fold dilutions starting from 100 μM
EKVX = conditions: 48 hours, five 10-fold dilutions starting from 100 μM
COLO 205 = assay: NCI screen antiproliferative activity, sulforhodamine B, Colon Cancer panel; assay type: cell-based, human; conditions: 48 hours, five 10-fold dilutions starting from 100 μM
NCI-H460 = conditions: 48 hours, five 10-fold dilutions starting from 100 μM
MDA-MB-435 = conditions: 48 hours, five 10-fold dilutions starting from 100 μM
SF-295 [16] = conditions: 48 hours, five 10-fold dilutions starting from 100 μM
MALME-3M = assay: NCI screen antiproliferative activity, sulforhodamine B, Melanoma panel; assay type: cell-based, human; conditions: 48 hours, five 10-fold dilutions starting from 100 μM
BT-549 = assay: cells; conditions: Homo sapiens, BT-549, 48 h
OVCAR-8 = assay: cells; conditions: Homo sapiens, OVCAR-8, 48 h
IGROV1 [17] = conditions: 48 hours, five 10-fold dilutions starting from 100 μM
UACC-62 = assay: cells; conditions: Homo sapiens, UACC-62, 48 h
OVCAR-5 [18] = assay: cells; conditions: Homo sapiens, OVCAR-5, 48 h
HCC-2998 = assay: cells; conditions: Homo sapiens, HCC 2998, 48 h

In the case of `CCCCCCCCNCCC[C@@H](C)[C@H]1CC[C@H]2[C@@H]3[C@H](OCCCN)C[C@@H]4C[C@H](OCCCN)CC[C@]4(C)[C@H]3C[C@H](OCCCN)[C@]12C` [CSA-13], the GI50 (PC-3 [1]) was 3.74 µM, the CC50 (PC-3 [1]; read-out: LC50) was over 100 µM and the GI50 (NCI-H322M) was 1360 nM. It also gave a CC50 (NCI-H322M; read-out: LC50) of over 100 µM, a TGI (DU-145) of 2.35 µM and a TGI (MOLT-4) of 2.93 µM. It also gave a GI50 (MOLT-4; Homo sapiens) of 1250 nM, a GI50 (IGROV1 [2]) of 1440 nM and a CC50 (IGROV1 [2]; read-out: LC50) of 8.67 µM. It also gave a GI50 (ACHN [3]) of 1480 nM, a CC50 (ACHN [3]; read-out: LC50) of 9.17 µM and a GI50 (MDA-MB-231/ATCC) of 422 nM. The CC50 (MDA-MB-231/ATCC; read-out: LC50) was over 100 µM, the TGI (SK-MEL-5) was 1.92 µM and the GI50 (SK-MEL-5; Homo sapiens) was 504 nM. It also gave a GI50 (HOP-92 [4]) of 408 nM, a CC50 (HOP-92 [4]; read-out: LC50) of over 100 µM and a GI50 (NCI-ADR-RES) of 1830 nM. For the same compound, the CC50 (NCI-ADR-RES; read-out: LC50) was 36.5 µM, the TGI (NCI-H226) was 12.8 µM and the TGI (HCT-116) was 2.61 µM. For the same compound, the GI50 (786-0) was 837 nM, the CC50 (786-0; read-out: LC50) was 5.4 µM and the GI50 (SN12C [5]) was 571 nM. It also gave a CC50 (SN12C [5]; read-out: LC50) of 27 µM, a TGI (UACC-257) of 9.00 µM and a TGI (SNB-75 [6]) of 5.93 µM. It also gave a TGI (SN12C [7]) of 3.55 µM, a TGI (T-47D) of 7.13 µM and a GI50 (SNB-75 [8]) of 1760 nM. For the same compound, the CC50 (SNB-75 [8]; read-out: LC50) was 57.2 µM, the TGI (SW-620) was 2.67 µM and the GI50 (SW-620; Homo sapiens) was 1160 nM. The TGI (HOP-92 [9]) was 21.2 µM, the TGI (OVCAR-5 [10]) was 9.44 µM and the TGI (SK-OV-3) was 16.3 µM. The TGI (CAKI-1) was 10.6 µM, the GI50 (SF-268) was 1500 nM and the CC50 (SF-268; read-out: LC50) was 9.14 µM. It also gave a TGI (ACHN [11]) of 3.68 µM, a GI50 (MCF7 [12]) of 1630 nM and a CC50 (MCF7 [12]; read-out: LC50) of 5.85 µM. The TGI (MCF7 [13]) was 3.09 µM, the TGI (SR) was 2.29 µM and the GI50 (SR; Homo sapiens) was 272 nM. It also gave a GI50 (SF-295 [14]) of 496 nM, a CC50 (SF-295 [14]; read-out: LC50) of 24 µM and a TGI (PC-3 [15]) of over 100 µM. The TGI (K-562; 48 hours) was 2.47 µM, the GI50 (K-562; Homo sapiens, K562, 48 hours) was 1040 nM and the TGI (SK-MEL-2) was over 100 µM. For the same compound, the TGI (EKVX) was 3.38 µM, the TGI (COLO 205) was 3.02 µM and the GI50 (COLO 205; Homo sapiens) was 1270 nM. For the same compound, the TGI (NCI-H460) was 3.92 µM, the TGI (MDA-MB-435) was 1.46 µM and the TGI (SF-295 [16]) was 2.66 µM. It also gave a TGI (MALME-3M) of 3.88 µM, a GI50 (MALME-3M; Homo sapiens) of 1760 nM and a GI50 (BT-549) of 1070 nM. For the same compound, the CC50 (BT-549; read-out: LC50) was over 100 µM, the GI50 (OVCAR-8) was 1640 nM and the CC50 (OVCAR-8; read-out: LC50) was 9.82 µM. For the same compound, the TGI (IGROV1 [17]) was 3.54 µM, the GI50 (UACC-62) was 482 nM and the CC50 (UACC-62; read-out: LC50) was 9.43 µM. For the same compound, the GI50 (OVCAR-5 [18]) was 1550 nM, the CC50 (OVCAR-5 [18]; read-out: LC50) was 58.4 µM and the GI50 (HCC-2998) was 1510 nM. It also gave a CC50 (HCC-2998; read-out: LC50) of 13.3 µM.
